This note sets out measurements from patent publication US20100081679A1, “DIAMINOPYRIMIDINES AS FUNGICIDES” (Bayer CropScience AG, priority 2007, published 2010).

SMILES strings stand for the structures. Marks after values point to notes of the source that are not given here.

A short description of the first data set: logP determination via retention times, calibrated with unbranched alkan-2-ones. The class given is physicochemical. The settings on record: HPLC on reversed-phase C 18, EEC Directive 79/831 Annex V.A8; method *: 40° C., 0.1% aqueous formic acid and acetonitrile, linear gradient 10% to 95% acetonitrile.
Consider `O=C(N(c1ccc(Nc2ncc(Br)c(NCC3CC3)n2)cc1)C1CC1)C(F)(F)F` [compound 465], for which the logP was 2.74*. `O=C(Nc1cccc(Nc2ncc(Br)c(NCC3CC3)n2)c1)Oc1ccccc1` [compound 466]: the logP is reported as 2.36*.

As to `CC(C)(CF)C(=O)Nc1cccc(Nc2ncc(Br)c(NCC3CC3)n2)c1` [compound 467], the logP was 1.99*. With `CC(=O)Nc1cc(Nc2ncc(Br)c(NCC3CC3)n2)ccc1C` [compound 468], the logP is listed as 1.51*. As for `FC(F)Sc1ccc(Nc2ncc(Br)c(NCC3CC3)n2)cc1` [compound 470], the logP is 3.07*. For the molecule `Cc1cc(C)cc(Nc2ncc(Br)c(NCC3CC3)n2)c1` [compound 471], the logP is listed as 2.36*.

With `Brc1ccc(Nc2ncc(Br)c(NCC3CC3)n2)cc1` [compound 472], the logP is 2.84*. As for `Clc1ccc(Nc2ncc(Br)c(NCC3CC3)n2)cc1` [compound 474], the logP is on record as 2.67*. Take `N#Cc1ccc(Nc2ncc(Br)c(NCC3CC3)n2)cc1` [compound 475]: the logP is 2.7*. As for `FC(F)(F)Oc1ccc(Nc2ncc(Br)c(NCC3CC3)n2)cc1` [compound 476], the logP is 3.1*. Still for that read-out and setting: under `CCOC(=O)c1cccc(Nc2ncc(Br)c(NCC3CC3)n2)c1` [compound 477] stands 2.51*; under `Oc1ccc(Nc2ncc(Br)c(NCC3CC3)n2)c(F)c1` [compound 478], 1.51*; under `CC(=O)Nc1ccc(Nc2ncc(Br)c(NCC3CC3)n2)cc1Cl` [compound 479], 1.68*. As for `CCN(C(C)=O)c1ccc(Nc2ncc(Br)c(NCC3CC3)n2)cc1` [compound 480], the logP is listed as 1.83*.

Take `CC(=O)Nc1ccc(Nc2ncc(Br)c(NCC3CC3)n2)cn1` [compound 481]: the logP is 1.47*. Take `C=CC(=O)Nc1cccc(Nc2ncc(Br)c(NCC3CC3)n2)c1` [compound 482]: the logP was 1.66*.

Still in this data set, the particulars now being: method **: HPLC reversed-phase C 18, 43° C., 0.1% aqueous phosphoric acid and acetonitrile, linear gradient 10% to 95% acetonitrile.
Regarding `O=[N+]([O-])c1ccc(Nc2ncc(Cl)c(NC3CC3)n2)cc1` [compound 438], the logP is reported as 2.9**. Turning to `N#Cc1cc(Nc2ncc(Cl)c(NC3CC3)n2)ccc1N1CCCC1` [compound 439], the logP is recorded as 2.23**. For the molecule `O=C1CCCN1c1ccc(Nc2ncc(Br)c(NCC3CC3)n2)cc1` [compound 457], the logP is recorded as 1.59**.

Still in this data set, the particulars now being: method *: HPLC reversed-phase C18, 40° C., 0.1% aqueous formic acid and acetonitrile, linear gradient 10% to 95% acetonitrile.
Regarding `O=S(=O)(Cc1ccc(Nc2ncc(Cl)c(NC3CC3)n2)cc1)Nc1ccccc1` [compound 369], the logP was 2.18*. The same measure, in the same setting: the same measure for `O=S(=O)(Cc1cccc(Nc2ncc(Cl)c(NC3CC3)n2)c1)Nc1ccccc1` [compound 370]: 2.15*; for `CCCNS(=O)(=O)Cc1ccc(Nc2ncc(Cl)c(NC3CC3)n2)cc1` [compound 371]: 1.79*; for `O=S(=O)(Cc1cccc(Nc2ncc(Cl)c(NC3CC3)n2)c1)NC1CC1` [compound 372]: 1.59*. In the case of `O=C1CCCCN1Cc1cccc(Nc2ncc(Cl)c(NC3CC3)n2)c1` [compound 373], the logP is 1.58*. With `N#Cc1ccc(Nc2ncc(Cl)c(NC3CC3)n2)cc1` [compound 374], the logP is 2.33*.

With `FC(F)(F)Oc1ccc(Nc2ncc(Cl)c(NC3CC3)n2)cc1` [compound 375], the logP is reported as 2.84*. As to `FC(F)(F)Sc1ccc(Nc2ncc(Cl)c(NC3CC3)n2)cc1` [compound 376], the logP is 3.72*. Regarding `CSc1ccc(Nc2ncc(Cl)c(NC3CC3)n2)cc1Cl` [compound 377], the logP was 2.84*. The same measure, in the same setting: the same measure for `COC(=O)c1ccc(Nc2ncc(Cl)c(NC3CC3)n2)cc1Cl` [compound 378]: 2.91*; for `CC(=O)Nc1ccc(Nc2ncc(Br)c(NC3CC3)n2)cc1Cl` [compound 379]: 1.64*.

Consider `CCN(C(C)=O)c1ccc(Nc2ncc(Br)c(NC3CC3)n2)cc1` [compound 380], for which the logP was 1.73*. On to `CCC(=O)Nc1cccc(Nc2ncc(Br)c(NC3CC3)n2)c1` [compound 381], for which the logP is 1.54*. Consider `CNC(=O)c1ccc(Nc2ncc(Br)c(NC3CC3)n2)cc1` [compound 382], for which the logP is 1.39*. The same measure, in the same setting: the same measure for `CNC(=O)c1cccc(Nc2ncc(Br)c(NC3CC3)n2)c1` [compound 383]: 1.39*; for `O=C1NC(=O)C(c2ccc(Nc3ncc(Br)c(NC4CC4)n3)cc2)N1` (stereo not shown) [compound 384]: 0.62*; for `CCOC(=O)Nc1cccc(Nc2ncc(Br)c(NC3CC3)n2)c1` [compound 385]: 1.83*. For `CNC(=O)Oc1cccc(Nc2ncc(Br)c(NC3CC3)n2)c1` [compound 386], the logP is 1.56*. In the case of `CC(C)(C)OC(=O)Nc1ccc(Nc2ncc(Br)c(NC3CC3)n2)cc1` [compound 391], the logP is recorded as 2.13*. As for `COc1ccc(Nc2ncc(Br)c(NCC3CC3)n2)cc1OC` [compound 409], the logP is given as 1.68*. Same read-out and setting: the same measure for `Brc1cnc(Nc2ccc3c(c2)OCO3)nc1NCC1CC1` [compound 418]: 1.83*; for `CNC(=O)c1ccc(Nc2ncc(Br)c(NCC3CC3)n2)cc1` [compound 424]: 1.58*; for `C=CCNC(=O)c1ccc(Nc2ncc(Br)c(NCC3CC3)n2)cc1` [compound 425]: 1.9*. As to `CC(C)(C)NC(=O)c1ccc(Nc2ncc(Br)c(NCC3CC3)n2)cc1` [compound 426], the logP is listed as 2.3*.

For `CNC(=O)c1cccc(Nc2ncc(Br)c(NCC3CC3)n2)c1` [compound 427], the logP is reported as 1.53*.

Regarding `CCOC(=O)Nc1cccc(Nc2ncc(Br)c(NCC3CC3)n2)c1` [compound 428], the logP is on record as 1.99*. On to `CNC(=O)Oc1cccc(Nc2ncc(Br)c(NCC3CC3)n2)c1` [compound 429], for which the logP was 1.68*. For the molecule `COC(=O)Nc1ccc(Nc2ncc(Br)c(NC3CC3)n2)cc1Cl` [compound 430], the logP is 2.2*.

Consider `CN(C)S(=O)(=O)Cc1cccc(Nc2ncc(Cl)c(NC3CC3)n2)c1` [compound 431], for which the logP was 1.62*. In the case of `O=C1CCCN1Cc1ccc(Nc2ncc(Cl)c(NC3CC3)n2)cc1` [compound 432], the logP was 1.36*.

Turning to `O=C1CCCN1Cc1cccc(Nc2ncc(Cl)c(NC3CC3)n2)c1` [compound 433], the logP is 1.45*. On to `CC(=O)Nc1ccc(Nc2ncc(Cl)c(NC3CC3)n2)cc1.Cc1ccc(S(=O)(=O)O)cc1` [compound 434], for which the logP is 1.02*. Regarding `CC(C)CSc1cccc(Nc2ncc(Cl)c(NC3CC3)n2)c1` [compound 435], the logP is reported as 3.75*.

For `CCSc1cccc(Nc2ncc(Cl)c(NC3CC3)n2)c1` [compound 436], the logP was 2.72*. Still for that read-out and setting: the same measure for `CCCSc1cccc(Nc2ncc(Cl)c(NC3CC3)n2)c1` [compound 437]: 3.33*; for `CCSc1cccc(Nc2ncc(Cl)c(NC3CC3)n2)c1.Cc1ccc(S(=O)(=O)O)cc1` [compound 440]: 2.73*; for `CC(C)CCSc1cccc(Nc2ncc(Cl)c(NC3CC3)n2)c1.Cc1ccc(S(=O)(=O)O)cc1` [compound 441]: 4.24*. With `CCCCCCCCSc1cccc(Nc2ncc(Cl)c(NC3CC3)n2)c1.Cc1ccc(S(=O)(=O)O)cc1` [compound 442], the logP is given as 6.16*.

Turning to `CCCCSc1cccc(Nc2ncc(Cl)c(NC3CC3)n2)c1.Cc1ccc(S(=O)(=O)O)cc1` [compound 443], the logP is reported as 3.79*. On the same count and under the same terms, under `CC(C)COc1cccc(Nc2ncc(Cl)c(NC3CC3)n2)c1` [compound 444] stands 3.17*; under `CC(C)COc1cccc(Nc2ncc(Br)c(NC3CC3)n2)c1` [compound 445], 3.36*. `COC(=O)Nc1ccc(Nc2ncc(C)c(NC3CC3)n2)cc1` [compound 446]: the logP is on record as 1.06*. On the same count and under the same terms, under `O=C1CCC(=O)N1c1cccc(Nc2ncc(Br)c(NC3CC3)n2)c1` [compound 447] stands 1.38*.

Consider `CS(=O)(=O)c1ccc(Nc2ncc(Br)c(NCC3CC3)n2)cc1` [compound 448], for which the logP is 2.09*.

In the case of `CN(C)S(=O)(=O)c1ccc(Nc2ncc(Br)c(NCC3CC3)n2)cc1` [compound 449], the logP was 2.51*. In the case of `CC(C)(C)C(=O)Nc1ccc(Nc2ncc(Br)c(NCC3CC3)n2)cc1` [compound 450], the logP is 1.99*. As to `CC(C)(C)C(=O)Nc1cccc(Nc2ncc(Br)c(NCC3CC3)n2)c1` [compound 451], the logP was 2.06*.

For `CN(C)C(=O)c1ccc(Nc2ncc(Br)c(NCC3CC3)n2)cc1` [compound 452], the logP is 1.66*;.

With `CSc1ccc(Nc2ncc(Br)c(NCC3CC3)n2)cc1` [compound 453], the logP was 2.29*. The same measure, in the same setting: under `O=S(=O)(c1cccc(Nc2ncc(Br)c(NCC3CC3)n2)c1)N1CCCCC1` [compound 454] stands 2.29*. The same measure, in the same setting: under `CC(C)(C)C(=O)Cc1ccc(Nc2ncc(Br)c(NCC3CC3)n2)cc1` [compound 455] stands 2.48*; under `CC(=O)c1ccc(Nc2ncc(Br)c(NCC3CC3)n2)cc1` [compound 456], 2.26*.

In the case of `O=C1CCCN1c1ccc(Nc2ncc(Br)c(NCC3CC3)n2)cc1` [compound 457], the logP is on record as 1.66*;.

Consider `COC(=O)Nc1cccc(Nc2ncc(Br)c(NCC3CC3)n2)c1` [compound 458], for which the logP was 1.73*. Take `CSc1cc(Nc2ncc(Br)c(NCC3CC3)n2)ccc1C` [compound 459]: the logP was 2.58*.

Take `CC(C)C(=O)Nc1cccc(Nc2ncc(Br)c(NCC3CC3)n2)c1` [compound 460]: the logP was 1.85*. For `CC(C)(C)NC(=O)c1cccc(Nc2ncc(Br)c(NCC3CC3)n2)c1` [compound 461], the logP is given as 2.16*. On to `FC(F)C(F)(F)Oc1ccc(Nc2ncc(Br)c(NCC3CC3)n2)cc1` [compound 462], for which the logP is given as 2.8*. In the case of `CC(=O)c1cc(Nc2ncc(Br)c(NCC3CC3)n2)ccc1O` [compound 463], the logP is reported as 1.92*. On to `Oc1ccc(Nc2ncc(Br)c(NCC3CC3)n2)cc1F` [compound 464], for which the logP is listed as 1.53*.
